Assay results taken from patent US6921821B2, “Antagonists of melanin concentrating hormone receptor” (Abbott Laboratories, priority 2002, dated 2005).
Structures can show the parent of a compound that is named as a salt.

Molecular target: T1, murine MCHR (Mus musculus, UniProt Q8JZL2)
T1 construct: expressed in transfected cells; host or cells: HEK293
Experiment: Assay for release of intracellular calcium (FLIPR, Fluo-4), inhibition of MCH-induced Ca++ flux
Type: cell-based
Details: test compound at a dose of 10 μM, HEK293 cells expressing the murine MCHR, read-out: inhibition of MCH (MCH induced Ca++ flux / fluorescence)
Experimental: Assay for Release of Intracellular Calcium
Activation of the melanin concentrating hormone receptor (MCHR) by MCH induces the release of Ca^++ from intracellular stores. This intracellular calcium release is measured using a fluorometric imaging plate reader (FLIPR™, Molecular Devices Corp.) in conjunction with the Ca^++-sensitive dye Fluo-4. Release of Ca^++ from intracellular stores causes an increase in fluorescence of the dye that is proportional to Ca^++ concentration. Briefly, the assays are performed as follows. HEK293 cells expressing the murine MCHR are plated overnight at 50,000 cells/well in 96-well plates. The following day, culture medium is removed and replaced with 100 μl/well of D-PBS (+glucose and sodium pyruvate) containing 2.5 μM Fluo-4AM (Molecular Probes), 0.01% Pluronic F-127 and 2.5 mM probenecid. Cells are loaded with the Fluo-4 dye for at least one hour at room temp. After loading, the cells are washed gently to remove extracellular dye and 100 μl of D-PBS (+glucose and sodium pyruvate) is added to each well. Test compounds are prepared at 40 μM in 4% DMSO. The cell plate is placed in the FLIPR™ and 50 μl/well of test compound is delivered. The calcium signal is followed for 3 minutes to assay for potential agonist activity by the test compounds. Then 50 μl/well of 12 nM mouse MCH (in D-PBS containing 0.1% BSA) is added and the ligand-induced calcium signal is followed for an additional 3 minutes. Antagonist activity as determined by the test compounds ability to inhibit MCH induced Ca^++ flux is calculated as % inhibition as described by the following formula: % inhibition=[1−((fTC−fB)÷(fMCH−fB))]×100, where fTC=MCH-induced fluorescence in the presence of test compound; fMCH=MCH-induced fluorescence in the absence of test compound; and fB=Baseline fluorescence.
MCH (3 nM) usually elicits a response of 30,000-40,000 relative fluorescence units (RFU) with a baseline of about 1000 RFU. Fluo-4 fluorescence is measured at 488 nm, with an exposure of 0.40 sec. and F-stop=2.0 and the laser set at 0.40-0.60 W constant light output.

T1 sequence (Q8JZL2 whole entry): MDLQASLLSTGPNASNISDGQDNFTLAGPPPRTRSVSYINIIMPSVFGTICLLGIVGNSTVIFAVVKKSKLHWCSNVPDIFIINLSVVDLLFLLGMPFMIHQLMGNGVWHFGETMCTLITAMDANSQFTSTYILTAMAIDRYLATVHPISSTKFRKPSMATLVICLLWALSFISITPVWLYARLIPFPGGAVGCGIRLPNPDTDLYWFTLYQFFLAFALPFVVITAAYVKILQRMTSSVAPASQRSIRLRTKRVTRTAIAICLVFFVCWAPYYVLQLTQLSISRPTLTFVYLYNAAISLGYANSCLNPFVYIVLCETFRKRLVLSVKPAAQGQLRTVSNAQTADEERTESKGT

Work on `COc1ccc2oc(=O)cc(NC3CCN(Cc4cccc(C)c4)CC3)c2c1` [II-92, 6-Methoxy-4-[1-(3-methyl-benzyl)-piperidin-4-ylamino]-chromen-2-one trifluoroacetate] yielded an inhibition at 10 µM of at least 50%.

Work on `COc1ccc2oc(=O)cc(NC3CCN(Cc4ccc(OC)c(F)c4)CC3)c2c1` [II-70, 4-[1-(3-Fluoro-4-methoxy-benzyl)-piperidin-4-ylamino]-6-methoxy-chromen-2-one trifluoroacetate] yielded an inhibition at 10 µM of at least 50%.

For `COc1ccc(CN2CCC(Nc3cc(=O)oc4ccc(OC)cc34)CC2)cc1` [II-39, 6-Methoxy-4-[1-(4-methoxy-benzyl)-piperidin-4-ylamino]-chromen-2-one trifluoroacetate], the inhibition at 10 µM was at least 50%.

For `C=Cc1ccc2oc(=O)cc(NC3CCN(Cc4ccc5c(c4)CCO5)CC3)c2c1` [II-87, 4-[1-(2,3-Dihydro-benzofuran-5-ylmethyl)-piperidin-4-ylamino]-6-vinyl-chromen-2-one], the inhibition at 10 µM was at least 50%.

Compound `CCc1ccc2c(c1)c(NC1CCN(Cc3ccc4c(c3)OCO4)CC1)cc(=O)n2C` [Compound V-13, 4-(1-Benzo[1,3]dioxol-5-ylmethyl-piperidin-4-ylamino)-6-ethyl-1-methyl-1H-quinolin-2-one] has an inhibition at 10 µM of at least 50%.

Compound `C=Cc1ccc2oc(=O)cc(NC3CCN(Cc4ccc5ocnc5c4)CC3)c2c1` [II-100, 4-(1-Benzooxazol-5-ylmethyl-piperidin-4-ylamino)-6-vinyl-chromen-2-one] has an inhibition at 10 µM of at least 50%.

With `O=c1cc(NC2CCN(Cc3ccc(OCCCN4CCCCC4)cc3)CC2)c2cc(Cl)ccc2o1` [II-49, 6-Chloro-4-{1-[4-(3-piperidin-1-yl-propoxy)-benzyl]-piperidin-4-ylamino}-chromen-2-one; Double TFA Salt] the inhibition at 10 µM was at least 50%.

Compound `O=c1cc(NC2CCN(Cc3ccc4ncccc4c3)CC2)c2cc(Cl)ccc2o1` [II-40, 6-Chloro-4-(1-quinolin-6-ylmethyl-piperidin-4-ylamino)-chromen-2-one] has an inhibition at 10 µM of at least 50%.

`O=c1cc(NC2CCN(Cc3cccc4ccccc34)CC2)c2cc(Cl)ccc2o1` [II-5, 6-Chloro-4-(1-naphthalen-1-ylmethyl-piperidin-4-ylamino)-chromen-2-one] showed an inhibition at 10 µM of at least 50%.

With `O=c1cc(NC2CCN(Cc3ccc4c(c3)OCO4)CC2)c2cc(Cl)ccc2n1Cc1ccccc1` [Compound V-3, 4-(1-Benzo[1,3]dioxol-5-ylmethyl-piperidin-4-ylamino)-1-benzyl-6-chloro-1H-quinolin-2-one] the inhibition at 10 µM was at least 50%.

Work on `O=c1cc(NC2CCN(Cc3ccc4c(c3)OCO4)CC2)c2cc(C(F)(F)F)ccc2o1` [II-82, 4-(1-Benzo[1,3]dioxol-5-ylmethyl-piperidin-4-ylamino)-6-trifluoromethyl-chromen-2-one] yielded an inhibition at 10 µM of at least 50%.

With `CCc1ccc2oc(=O)cc(NC3CCN(Cc4ccc(C)c(C)c4)CC3)c2c1` [II-103, 4-{1-(3,4-Dimethyl-benzyl)-piperidin-4-ylamino}-6-ethyl-chromen-2-one] the inhibition at 10 µM was at least 50%.

In the case of `O=c1cc(NC2CCN(C/C=C/c3cccc(Cl)c3)CC2)c2ccccc2o1` [III-9, 4-{1-[3-(3-Chloro-phenyl)-allyl]-piperidin-4-ylamino}-chromen-2-one], the inhibition at 10 µM is reported as at least 50%.

`CCn1c(=O)cc(NC2CCN(C/C=C/c3ccccc3)CC2)c2cc(Cl)ccc21` [Compound V-63, 6-Chloro-1-ethyl-4-[1-(3-phenyl-allyl)-piperidin-4-ylamino]-1H-quinolin-2-one] was tested, and the inhibition at 10 µM was at least 50%.

`COc1ccc2oc(=O)cc(NC3CCN(Cc4ccc(C(=O)NCCN5CCCC5)cc4)CC3)c2c1` [II-86, 4-[4-(6-Methoxy-2-oxo-2H-chromen-4-ylamino)-piperidin-1-ylmethyl]-N-(2-pyrrolidin-1-yl-ethyl)-benzamide; Double TFA Salt] gave an inhibition at 10 µM of at least 50%.

Compound `O=c1cc(NC2CCN(Cc3ccc4ocnc4c3)CC2)c2cc(Cl)ccc2o1` [II-95, 4-{1-Benzooxazol-5-ylmethyl-piperidin-4-ylamino)-6-chloro-chromen-2-one] has an inhibition at 10 µM of at least 50%.

For `COc1ccc2oc(=O)cc(NC3CCN(Cc4ccc5[nH]ccc5c4)CC3)c2c1` [II-54, 4-[1-(1H-Indol-5-ylmethyl)-piperidin-4-ylamino]-6-methoxy-chromen-2-one], the inhibition at 10 µM was at least 50%.

With `COC(=O)c1c(NC2CCN(Cc3ccc4ccccc4c3)CC2)c2cc(Cl)ccc2n(C)c1=O` [Compound V-30, 6-Chloro-1-methyl-4-(1-naphthalen-2-ylmethyl-piperidin-4-ylamino)-2-oxo-1,2-dihydro-quinoline-3-carboxylic acid methyl ester] the inhibition at 10 µM was at least 50%.

`C=Cc1ccc2oc(=O)cc(NC3CCN(Cc4ccc(C)c(C)c4)CC3)c2c1` [II-46, 4-{1-(3,4-Dimethyl-benzyl)-piperidin-4-ylamino}-6-vinyl-chromen-2-one] showed an inhibition at 10 µM of at least 50%.

In the case of `O=c1cc(NC2CCN(Cc3ccc4c(c3)OCO4)CC2)c2cc(OC(F)(F)F)ccc2o1` [II-96, 4-(1-Benzo[1,3]dioxol-5ylmethyl-piperidin-4-ylamino)-6-trifluoromethoxy-chromen-2-one], the inhibition at 10 µM is reported as at least 50%.

With `O=c1cc(NC2CCN(C/C=C/c3ccccc3Cl)CC2)c2cc(Cl)ccc2o1` [III-2, 6-Chloro-4-{1-[3-(2-chloro-phenyl)-allyl]-piperidin-4-ylamino}-chromen-2-one] the inhibition at 10 µM was at least 50%.

Work on `O=c1cc(NC2CCN(Cc3ccc4c(c3)OCO4)CC2)c2cc(OC(F)F)ccc2o1` [II-125, 4-(1-Benzo[1,3]dioxol-5-ylmethyl-piperidin-4-ylamino)-6-difluoromethoxy-chromen-2-one] yielded an inhibition at 10 µM of at least 50%.

With `COc1ccc2oc(=O)c(Cl)c(NC3CCN(Cc4ccc5c(c4)OCO5)CC3)c2c1` [II-90, 4-(1-Benzo[1,3]dioxol-5-ylmethyl-piperidin-4-ylamino)-3-chloro-6-methoxy-chromen-2-one] the inhibition at 10 µM was at least 50%.

`Cc1ccc2oc(=O)cc(NC3CCN(C/C=C/c4ccccc4[N+](=O)[O-])CC3)c2c1` [III-12, 6-Methyl-4-{1-[3-(2-nitro-phenyl)-allyl]-piperidin-4-ylamino}-chromen-2-one] was tested, and the inhibition at 10 µM was at least 50%.

`COc1ccc2c(c1)c(NC1CCN(Cc3ccc4occc4c3)CC1)cc(=O)n2C` [Compound V-12, 4-(1-Benzofuran-5-ylmethyl-piperidin-4-ylamino)-6-methoxy-1-methyl-1H-quinolin-2-one] gave an inhibition at 10 µM of at least 50%.

With `COc1ccc2oc(=O)cc(NC3CCN(Cc4ccc(OC)c(C)c4)CC3)c2c1` [II-37, 6-Methoxy-4-[1-(4-methoxy-3-methyl-benzyl)-piperidin-4-ylamino]-chromen-2-one trifluoroacetate] the inhibition at 10 µM was at least 50%.

Work on `COC(=O)c1c(NC2CCN(Cc3ccc4ccccc4c3)CC2)c2cc(Cl)ccc2[nH]c1=O` [Compound V-37, 6-Chloro-4-(1-naphthalen-2-ylmethyl-piperidin-4-ylamino)-2-oxo-1,2-dihydro-quinoline-3-carboxylic acid methyl ester] yielded an inhibition at 10 µM of at least 50%.

For `Cc1ccc2oc(=O)cc(NC3CCN(Cc4ccc5c(c4)OCO5)CC3)c2c1` [II-3, 4-(1-Benzo[1,3]dioxol-5-ylmethyl-piperidin-4-ylamino)-6-methyl-chromen-2-one], the inhibition at 10 µM was at least 50%.

For `COc1ccc2oc(=O)cc(NC3CCN(C/C=C/c4ccccc4)CC3)c2c1` [III-1, 6-Methoxy-4-[1-(3-phenyl-allyl)-piperidin-4-ylamino] chromen-2-one], the inhibition at 10 µM was at least 50%.
